# What was measured:
# [1] = test system: patients with interstitial lung disease and pulmonary hypertension; test: Adverse events and serious adverse events, INCREASE; conditions: 16-week trial
# Excerpt: (§1) Safety assessments consisted of the development of AEs, vital signs, clinical laboratory parameters, ECG parameters, hospitalizations due to cardiopulmonary indications, exacerbations of underlying lung disease, and oxygenation.
# (§2) Safety end points included adverse events, abnormal laboratory results, oxygenation as measured by pulse oximetry (Spo2) and supplemental oxygen requirement, changes in pulmonary function test results, hospitalization for a cardiopulmonary indication, and investigator-reported exacerbations of underlying lung disease, defined as acute, clinically significant respiratory deterioration characterized by evidence of new widespread alveolar abnormality.
# [2] = test system: patients with interstitial lung disease and pulmonary hypertension; conditions: human, in vivo, 16 weeks
# Excerpt: as §1, §2
smiles,measurement,setting,value
"CCCCC[C@H](O)CC[C@@H]1[C@H]2Cc3cccc(OCC(=O)O)c3C[C@H]2C[C@H]1O [Inhaled treprostinil, treprostinil]",patients with serious adverse events,[1],patients (23.3%)
same,Adverse event: Cough,[1]; N = 163,71 (43.6) no. of patients (%)
same,Adverse event: Diarrhea,[1]; N = 163,22 (13.5) no. of patients (%)
same,Adverse event: Dizziness,[1]; N = 163,30 (18.4) no. of patients (%)
same,Adverse event: Dyspnea,[1]; N = 163,41 (25.2) no. of patients (%)
same,Adverse event: Fatigue,[1]; N = 163,23 (14.1) no. of patients (%)
same,Adverse event: Headache,[1]; N = 163,45 (27.6) no. of patients (%)
same,Adverse event: NT-proBNP increased,[1]; N = 163,9 (5.5) no. of patients (%)
same,Adverse event: Nausea,[1]; N = 163,25 (15.3) no. of patients (%)
same,Adverse event: Oropharyngeal pain,[1]; N = 163,18 (11.0) no. of patients (%)
same,Adverse event: Throat irritation,[1]; N = 163,20 (12.3) no. of patients (%)
same,"Any Serious Event, number of patients",[1]; N = 163,38 patients
same,Patients with ≥1 adverse event,[1]; N = 163,152 (93.3) no. (%)
same,Patients with ≥1 serious adverse event,[1]; N = 163,38 (23.3) no. (%)
same,Serious adverse event: Abdominal pain,[1]; N = 163,0 n
same,Serious adverse event: Acute kidney injury,[1]; N = 163,0 n
same,Serious adverse event: Acute myocardial infarction,[1]; N = 163,1 n
same,Serious adverse event: Acute respiratory failure,[1]; N = 163,4 n
same,Serious adverse event: Acute right ventricular failure,[1]; N = 163,1 n
same,Serious adverse event: Arrhythmia,[1]; N = 163,1 n
same,Serious adverse event: Aspiration,[1]; N = 163,0 n
same,Serious adverse event: Atrial fibrillation,[1]; N = 163,0 n
same,Serious adverse event: B-cell lymphoma,[1]; N = 163,1 n
same,Serious adverse event: Bradycardia,[1]; N = 163,0 n
same,Serious adverse event: Bronchitis,[1]; N = 163,2 n
same,Serious adverse event: Bronchopulmonary aspergillosis,[1]; N = 163,1 n
same,Serious adverse event: Cardiac arrest,[1]; N = 163,1 n
same,Serious adverse event: Cardiac failure,[1]; N = 163,0 n
same,Serious adverse event: Cardiac failure acute,[1]; N = 163,0 n
same,Serious adverse event: Cardiac failure congestive,[1]; N = 163,1 n
same,Serious adverse event: Cardiogenic shock,[1]; N = 163,0 n
same,Serious adverse event: Cardiopulmonary failure,[1]; N = 163,1 n
same,Serious adverse event: Cellulitis,[1]; N = 163,1 n
same,Serious adverse event: Cerebral haemorrhage,[1]; N = 163,1 n
same,Serious adverse event: Chest pain,[1]; N = 163,1 n
same,Serious adverse event: Chronic obstructive pulmonary disease,[1]; N = 163,2 n
same,Serious adverse event: Chronic respiratory failure,[1]; N = 163,2 n
same,Serious adverse event: Chronic right ventricular failure,[1]; N = 163,0 n
same,Serious adverse event: Coagulopathy,[1]; N = 163,0 n
same,Serious adverse event: Combined pulmonary fibrosis and emphysema,[1]; N = 163,1 n
same,Serious adverse event: Cor pulmonale,[1]; N = 163,1 n
same,Serious adverse event: Cor pulmonale acute,[1]; N = 163,0 n
same,Serious adverse event: Coronary artery disease,[1]; N = 163,0 n
same,Serious adverse event: Death with unknown cause,[1]; N = 163,3 n
same,Serious adverse event: Disease progression,[1]; N = 163,0 n
same,Serious adverse event: Dyspnoea,[1]; N = 163,3 n
same,Serious adverse event: Epistaxis,[1]; N = 163,0 n
same,Serious adverse event: Fluid overload,[1]; N = 163,0 n
same,Serious adverse event: Haematochezia,[1]; N = 163,0 n
same,Serious adverse event: Haemoptysis,[1]; N = 163,1 n
same,Serious adverse event: Hyperglycaemia,[1]; N = 163,1 n
same,Serious adverse event: Hypertension,[1]; N = 163,0 n
same,Serious adverse event: Hypervolaemia,[1]; N = 163,1 n
same,Serious adverse event: Hypoxia,[1]; N = 163,1 n
same,Serious adverse event: Idiopathic pulmonary fibrosis,[1]; N = 163,1 n
same,Serious adverse event: Influenza,[1]; N = 163,1 n
same,Serious adverse event: Interstitial lung disease,[1]; N = 163,3 n
same,Serious adverse event: Left ventricular failure,[1]; N = 163,1 n
same,Serious adverse event: Lumbar vertebral fracture,[1]; N = 163,0 n
same,Serious adverse event: Metabolic encephalopathy,[1]; N = 163,0 n
same,Serious adverse event: Pain,[1]; N = 163,0 n
same,Serious adverse event: Pain in extremity,[1]; N = 163,1 n
same,Serious adverse event: Pneumonia,[1]; N = 163,1 n
same,Serious adverse event: Pneumonia influenzal,[1]; N = 163,0 n
same,Serious adverse event: Pneumothorax,[1]; N = 163,1 n
same,Serious adverse event: Post procedural infection,[1]; N = 163,0 n
same,Serious adverse event: Presyncope,[1]; N = 163,0 n
same,Serious adverse event: Pulmonary congestion,[1]; N = 163,0 n
same,Serious adverse event: Pulmonary hypertension,[1]; N = 163,1 n
same,Serious adverse event: Pulmonary oedema,[1]; N = 163,1 n
same,Serious adverse event: Respiratory distress,[1]; N = 163,0 n
same,Serious adverse event: Respiratory failure,[1]; N = 163,2 n
same,Serious adverse event: Right ventricular failure,[1]; N = 163,1 n
same,Serious adverse event: Scleroderma,[1]; N = 163,0 n
same,Serious adverse event: Sepsis,[1]; N = 163,0 n
same,Serious adverse event: Syncope,[1]; N = 163,1 n
same,Serious adverse event: Tachycardia,[1]; N = 163,1 n
same,Serious adverse event: Transplant dysfunction,[1]; N = 163,0 n
same,Serious adverse event: Upper respiratory tract infection,[1]; N = 163,2 n
same,Serious adverse event: Urosepsis,[1]; N = 163,0 n
same,Total no. of adverse events,[1]; N = 163,890
same,Total no. of adverse events leading to withdrawal of treprostinil or placebo,[1]; N = 163,47
same,Total no. of serious adverse events,[1]; N = 163,53
same,patients with serious adverse events,[1]; listed as inhaled treprostinil,23.3%
same,Serious adverse event: Rhinovirus infection,[2],1 n

# Source: US12697315B2, “Treatment for interstitial lung disease” (United Therapeutics Corporation, priority 2020, dated 2026)
